# Experimental data reported in PMC8424372 (Journal of Pharmaceutical Analysis, 2020).
# Read-outs that look alike come from different tables or passages of the source.
# Columns and labels:
# [1] = format: in vivo, human; conditions: for Detection in human plasma: after oral Gumiganghwal-tang tablets at maximum daily dose (9.6 g); for Shape of plasma concentration-time profile: after oral Gumiganghwal-tang tablets (9.6 g), humans; for AUC(0-inf) / Cmax / Tmax / Vd/F / half-life: male, human, po, 9.6 g
# [2] = Freeze-thaw stability in human plasma; format: in vitro ADME; conditions: −80 °C/25 °C, mean ± SD, n = 5, %
Compound,Detection in human plasma [1],Freeze-thaw stability (3 cycles) ([2]; spiked conc. 2 ng/mL) [%],Freeze-thaw stability (3 cycles) ([2]; spiked conc. 400 ng/mL) [%],Shape of plasma concentration-time profile [1],AUC(0-inf) ([1]; plasma) [ng·h/mL],Cmax ([1]; plasma) [ng/mL],Tmax ([1]; plasma) [h],half-life ([1]; plasma) [h],further results
"OCC1=C[C@@H](O)[C@@H]2C=CO[C@@H](O[C@@H]3O[C@H](CO)[C@@H](O)[C@H](O)[C@H]3O)[C@H]12 [Aucubin, aucubin]",not detected,97.78 ± 4.39,–,–,–,–,–,–,Freeze-thaw stability (3 cycles) ([2]; spiked conc. 500 ng/mL): 100.15 ± 2.79%
"OC[C@H]1O[C@@H](O[C@@H]2OC=C[C@H]3[C@H](O)[C@@H]4O[C@]4(CO)[C@@H]23)[C@H](O)[C@@H](O)[C@@H]1O [Catalpol, catalpol]",not detected,101.28 ± 2.95,–,–,–,–,–,–,Freeze-thaw stability (3 cycles) ([2]; spiked conc. 500 ng/mL): 100.03 ± 2.84%
"CC(C)=CCOc1c2occc2cc2ccc(=O)oc12 [Imperatorin, imperatorin]",not detected,98.44 ± 2.60,101.28 ± 2.93,–,–,–,–,–,–
"CC1(C)[C@@H](O[C@H]2O[C@H](C(=O)O)[C@@H](O)[C@H](O)[C@H]2O[C@@H]2O[C@H](C(=O)O)[C@@H](O)[C@H](O)[C@H]2O)CC[C@]2(C)[C@H]3C(=O)C=C4[C@@H]5C[C@@](C)(C(=O)O)CC[C@]5(C)CC[C@@]4(C)[C@]3(C)CC[C@@H]12 [Glycyrrhizin, glycyrrhizin]",–,97.58 ± 4.38,99.43 ± 2.90,double peaks,67.6 ± 15.3,2.16 ± 1.04,8.04 ± 1.16,28.8 ± 4.24,Vd/F ([1]; plasma): 5860 ± 1090 L
"C=CCc1ccc(OC)c(OC)c1 [Methyl eugenol, methyl eugenol]",not detected,–,101.10 ± 2.84,–,–,–,–,–,Freeze-thaw stability (3 cycles) ([2]; spiked conc. 5 ng/mL): 98.48 ± 2.51%
"O=c1ccc2cc3ccoc3c(O)c2o1 [Xanthotoxol, xanthotoxol]",–,102.24 ± 4.31,98.83 ± 2.95,double peaks,110 ± 38.6,3.78 ± 1.39,4.48 ± 1.76,8.98 ± 3.01,–
"C=C1CCC[C@]2(C)C[C@]3(O)OC(=O)C(C)=C3C[C@@H]12 [Atractylenolide III, atractylenolide III]",–,99.57 ± 2.04,96.73 ± 4.82,double peaks,417 ± 99.3,17.5 ± 5.6,4.33 ± 1.21,24.2 ± 5.29,Vd/F ([1]; plasma): 26.2 ± 6.26 L
CC1(C)[C@@H](O)CC[C@]2(C)[C@H]3C(=O)C=C4[C@@H]5C[C@@](C)(C(=O)O)CC[C@]5(C)CC[C@@]4(C)[C@]3(C)CC[C@@H]12 [18-beta-glycyrrhetinic acid],–,–,–,double peaks,988 ± 125,89.7 ± 14.4,6.42 ± 1.01,12.1 ± 2.28,–

# Now from value to molecule, other results behind:
Detection in human plasma [1],Freeze-thaw stability (3 cycles) ([2]; spiked conc. 2 ng/mL) [%],Freeze-thaw stability (3 cycles) ([2]; spiked conc. 400 ng/mL) [%],Shape of plasma concentration-time profile [1],AUC(0-inf) ([1]; plasma) [ng·h/mL],Cmax ([1]; plasma) [ng/mL],Tmax ([1]; plasma) [h],half-life ([1]; plasma) [h],Compound,further results
not detected,97.79 ± 3.42,99.46 ± 2.59,–,–,–,–,–,"CC(C)=CC(O)C/C(C)=C/COc1c2ccoc2cc2oc(=O)ccc12 (stereo not drawn) [Notopterol, notopterol]",–
–,100.16 ± 1.88,99.31 ± 2.36,double peaks,449 ± 103,4.46 ± 1.29,8.25 ± 2.07,70.5 ± 10.6,"CC1(C)O[C@H]1COc1c2ccoc2cc2oc(=O)ccc12 [Oxypeucedanin, oxypeucedanin]",Vd/F ([1]; plasma): 275 ± 56.4 L
–,96.92 ± 5.31,100.00 ± 2.30,double peaks,540 ± 122,52.6 ± 21.2,0.78 ± 0.23,7.78 ± 1.91,"O=c1cc(-c2ccccc2)oc2cc(O)c(O)c(O)c12 [Baicalein, baicalein]",–
–,99.53 ± 2.03,97.95 ± 3.22,double peaks,–,–,–,–,"O=C(O)[C@H]1O[C@@H](Oc2cc3oc(-c4ccccc4)cc(=O)c3c(O)c2O)[C@H](O)[C@@H](O)[C@@H]1O [Baicalin, baicalin]",AUC(0-inf) ([1]; in vivo): 805000 ± 121000 ng·h/mL; Cmax ([1]; in vivo): 34300 ± 5220 ng/mL; Tmax ([1]; in vivo): 7.99 ± 1.52 h; Vd/F ([1]; in vivo): 2.5 ± 0.21 L; half-life ([1]; in vivo): 14.4 ± 3.98 h
